Molecules are shown by their SMILES.

120 molecules from a melting point compilation (Tetko et al.) can be followed below.

In the case of `NNC(=O)c1cccc(S(=O)(=O)Nc2ccc(Cl)cc2)c1`, the melting point (commonly the temperature of the solid-liquid transition) was 191 to 193 °C. Turning to `Cc1nc2nc(Br)ccc2o1`, the melting point lay in the range of 76 to 78 °C.

Molecule `CN1C(=O)CCC(C(N)=O)C1c1cccs1` (stereo not given) had a melting point of 179 to 181 °C. The molecule `CC(C)(C)OC(=O)N1CCN(S(=O)(=O)C2CNC2)CC1` came in with a melting point of 132 to 134 °C. As for `NS(=O)(=O)Cc1ccc(Br)cc1`, the figure is 191 to 193 °C; as for `COc1ccccc1C(=O)/C=C1\NC(=O)CS1`, 173 to 175 °C; as for `COC(=O)c1cc(C)nc2nc(S)[nH]c(=O)c12`, 259 to 261 °C.

With `OCc1nnc(-c2ccccc2Cl)o1`, the melting point was 101 to 103 °C. The value for `CCNC(=O)Cn1ccc(N)n1` was 124 to 126 °C; that for `NNc1cccc(F)c1F` was 61 to 63 °C; that for `O=C(O)COc1ccc(Nc2ccccc2)cc1` was 138 to 142 °C. As for `Cc1ccc(N)cc1N1CCCS1(=O)=O`, the figure is 128 to 130 °C. For the molecule `NCc1ccc(-c2nc3ccccc3s2)o1`, the melting point is 124 to 126 °C. Molecule `OC1CCN(c2cnnc3ccccc23)CC1` returned a melting point of 84 to 86 °C. As for `Cc1cc(S(=O)(=O)Cl)cnc1Cl`, the figure is 54 to 56 °C; as for `COc1cc(Br)cc([N+](=O)[O-])c1`, 86 to 88 °C; as for `Cn1c(=O)[nH]c(=O)c2cc(S(N)(=O)=O)cnc21`, 311 to 313 °C. On to `CC(=O)c1ccc(Cl)c(N)c1`, for which the melting point is 103 to 105 °C.

Consider `NC1(C(=O)O)Cc2ccccc2C1`, for which the melting point was in the range of 254 to 256 °C.

`CCOC(=O)c1n[nH]sc1=N` yielded a melting point of 126 to 128 °C. As for `O=S(=O)(CCCBr)c1ccc(F)cc1`, the figure is 36 to 38 °C. The value for `CCOC(=O)c1cnc(SC)nc1N` was 110 to 120 °C; that for `COc1ccccc1-c1nnc(S)n1CCc1ccccc1` was 87 to 89 °C; that for `O=C(O)Cc1cc(=O)n(-c2ccccc2)[nH]1` was 98 to 102 °C. The value for `Nc1cc(-c2cc(F)cc(Br)c2)[nH]n1` was 104 to 106 °C; that for `COc1cc(C=O)ccc1OC(=O)OC(C)(C)C` was 89 to 91 °C. Molecule `COc1ncc(N)cc1C(N)=O` came in with a melting point of 144 to 146 °C. The value for `CC(N)c1ccc(-n2cccn2)cc1` (stereo not given) was 48 to 50 °C. The value for `Cc1nc(COc2ccccc2/C=C/C(=O)O)cs1` was 143 to 145 °C. As for `Cc1sc2nc(S)[nH]c(=O)c2c1C`, the figure is 328 to 330 °C; as for `COC(=O)c1ccc(Cl)c(N)c1`, 81 to 83 °C; as for `COc1ccc(N)cc1OCc1ccc2ccccc2n1`, 106 to 108 °C.

In the case of `O=C(O)c1nn(-c2cccc(Cl)c2)cc1O`, the melting point was 235 to 237 °C. As for `CC(C)(C)OC(=O)N1CCCC(C#N)C1` (stereo not given), the figure is 64 to 66 °C. As for `Cc1c(S(=O)(=O)Cl)oc2ccc(F)cc12`, the figure is 81 to 83 °C. `Cc1ccccc1C(=O)NCCC(=O)O` returned a melting point of 110 to 112 °C. As for `Cc1nn(-c2ccc(F)cc2)c2[nH]nc(N)c12`, the figure is 168 to 170 °C; as for `NC(=O)COc1ccc(O)cc1`, 154 to 156 °C. As for `O=S(=O)(CCN1CCCC(O)C1)c1ccc(Br)cc1` (stereo not given), the figure is 182 to 184 °C; as for `Cc1ccc(OCC(=O)O)c(Br)c1`, 130 to 132 °C. The value for `O=S(=O)(Cl)c1cccc2c1OCCO2` was 74 to 76 °C; that for `O=C1COc2cc(OCc3ccccc3)ccc21` was 99 to 101 °C; that for `Nc1nc(Cc2ccccc2)ns1` was 133 to 135 °C. The molecule `NC(=O)Nc1cccc2ccccc12` returned a melting point of 284 to 286 °C. As for `COC(=O)c1nc(Cl)c2ccccc2c1OC`, the figure is 103 to 105 °C; as for `Nc1ccc(Cn2cnc3ccccc32)cc1`, 177 to 179 °C; as for `Cc1cc(OCC(=O)O)ccc1Cl`, 180 to 182 °C. As for `Nn1c(S)nnc1C1CCOCC1`, the figure is 177 to 179 °C. As for `O=C(Cc1ccc(Cl)cc1)c1ccccc1`, the figure is 131 to 135 °C; as for `COc1cccc(C(=O)c2c[nH]c3ncccc23)c1`, 139 to 141 °C; as for `O=C1CCCN1c1cccc(O)c1`, 201 to 203 °C. The molecule `NC(=O)C1CCCC1N` (stereo not given) yielded a melting point of 123 to 125 °C. As for `CC(C)C(=O)N(C)CC(=O)O`, the figure is 109 to 111 °C; as for `COC(=O)c1ccc(C(=O)O)s1`, 194 to 196 °C. The value for `COc1ccc(NC(=O)NCCC(=O)O)cc1` was 174 to 176 °C; that for `N#CCC(=O)c1cc(Cl)cc(Cl)c1` was 139 to 141 °C; that for `Cn1cc(C=O)c(-c2cccs2)n1` was 64 to 66 °C.

For `NC(=O)NN=Cc1ccccc1O`, the melting point fell in the range of 232 to 234 °C. In turn, `Cc1ccc(-c2nc(CCl)cs2)o1` came in with a melting point of 71 to 73 °C. The value for `Brc1ccccc1Cc1nn[nH]n1` was 135 to 137 °C. As for `COc1ccc(N)cc1OCc1ccncc1`, the figure is 116 to 118 °C; as for `N#CCc1cnn(-c2ccccc2)c1`, 38 to 40 °C; as for `Cc1cc(-c2noc(CCC(=O)O)n2)ccc1F`, 124 to 126 °C. As for `Cc1ccc(C(=O)C(Br)CC(=O)O)cc1` (stereo not given), the melting point fell in the range of 116 to 118 °C. As for `CNc1cc(C(=O)O)cc(Cl)n1`, the figure is 259 to 261 °C; as for `O=c1cc(-c2ccccc2)c2ccccc2[nH]1`, 263 to 265 °C. The value for `Cc1cc(C)n2ncc(C(N)=NO)c2n1` was 227 to 229 °C; that for `O=C1CCc2cc(F)c([N+](=O)[O-])cc2N1` was 154 to 156 °C. As for `COC(=O)Nc1cccc(C(=O)O)c1`, the figure is 229 to 231 °C; as for `CC1(C)CCC(N)(C(N)=O)CC1`, 149 to 151 °C; as for `COC(=O)c1ccc(S(=O)(=O)Cl)c(Cl)c1`, 64 to 66 °C. Consider `Cc1ccc(C(=O)O)cc1S(N)(=O)=O`, for which the melting point fell in the range of 275 to 277 °C. `O=[N+]([O-])c1cc(Cl)cc(Br)c1O` yielded a melting point of 126 to 128 °C.

Molecule `Nc1cccc(NS(N)(=O)=O)c1` displayed a melting point of 75 to 81 °C. As for `O=C(O)C1=NN(Cc2ccc(F)cc2)C(=O)CC1`, the figure is 190 to 192 °C; as for `Nc1ccc2[nH]c3c(c2c1)CCCC3`, 174 to 176 °C. In turn, `Cc1ccc(S(=O)(=O)NCCCC(=O)O)cc1` yielded a melting point of 138 to 140 °C. The value for `O=C(O)c1cc2cc(F)ccc2oc1=O` was 185 to 187 °C. As to `Cc1cccc(-c2noc(S)n2)c1`, the melting point is 119 to 121 °C. The value for `COc1ccc(COCc2cccc(N)c2)cc1` was 55 to 57 °C. The value for `Nc1onc(-c2ccco2)c1-c1ccc2c(c1)OCO2` was 138 to 140 °C. As for `CCNc1nnc(C)c2ccccc12`, the figure is 135 to 137 °C; as for `Clc1ccc(C(Cl)c2ccc(Cl)cc2)cc1`, 57 to 59 °C; as for `CCCNC(=O)c1cccc(C(=O)O)c1`, 229 to 231 °C. `CCOC(=O)C1=C(CBr)C(C)(C)OC1=O` returned a melting point of 87 to 89 °C. In turn, `Cc1noc(C2CC2)c1NC(=O)OC(C)(C)C` returned a melting point of 108 to 110 °C.

As to `COc1cc(CC#N)c(Br)cc1OC(F)F`, the melting point was 80 to 82 °C. The value for `O=c1c(C(O)(O)C(F)(F)F)coc2ccc(Cl)cc12` was 114 to 116 °C; that for `CC(C)(C)OC(=O)N1CC=C(n2c(=O)[nH]c3ccccc32)CC1` was 201 to 203 °C. The value for `CCOC(=O)C1CC1c1ccc(OC)cc1` (stereo not given) was 78 to 80 °C; that for `Cc1nc(-c2ccc(C)c(NC(=O)CCl)c2)n[nH]1` was 297 to 299 °C. The value for `CC(C)(C)OC(=O)N1CCC(OS(C)(=O)=O)CC1` was 84 to 86 °C.

On to `COc1ccc(C(N)CN2CCN(C)CC2)cc1` (stereo not given), for which the melting point lay within 82 to 84 °C. As for `c1ccc(C2CNCCS2)cc1` (stereo not given), the figure is 60 to 62 °C; as for `CC(O)c1cnc(-c2ccc(Br)cc2)s1` (stereo not given), 77 to 79 °C. The value for `Cc1ccc(NC(=O)NC(=O)CCl)c(C)c1` was 159 to 161 °C; that for `Cc1nc2s[nH]c(=O)c2c(C)c1C` was 236 to 238 °C. The molecule `O=C(O)CSc1nc2ccccc2s1` displayed a melting point of 159 to 161 °C. Molecule `Cc1nccn1-c1cc(C(=O)O)c2ccccc2n1` had a melting point of 229 to 231 °C. The value for `O=C(O)c1cccc(CN2CCS(=O)(=O)CC2)c1` was 230 to 232 °C; that for `O=C(O)CNC(=O)OCC(F)(F)F` was 98 to 100 °C. The value for `Oc1nc(O)c2c(n1)CCC2` was 324 to 326 °C; that for `NC(=O)NCCCCC(=O)O` was 178 to 180 °C; that for `O=C(O)c1cnc2c(cnn2C2CCCC2)c1` was 141 to 143 °C.

`COc1cc(S(N)(=O)=O)ccc1[N+](=O)[O-]` had a melting point of 149 to 151 °C. For `Nn1c(S)nnc1Cc1ccc(F)cc1`, the melting point lay within 203 to 205 °C. As for `COc1ccccc1CCNC(=O)CCl`, the figure is 78 to 80 °C; as for `CCOC(=O)c1c(NC(=O)CCl)sc(C(C)=O)c1C`, 176 to 178 °C. The value for `Cn1ccnc1C(O)C(F)(F)F` (stereo not given) was 135 to 137 °C.

Molecule `O=C(O)C(Cc1c[nH]c2ccccc12)NS(=O)(=O)c1ccc(Cl)c(C(F)(F)F)c1` (stereo not given) yielded a melting point of 185 to 187 °C. The value for `CC(=O)c1cccc(NC(=O)OCC(F)(F)F)c1` was 135 to 137 °C. As for `Sc1nnc(N2CCCC2)s1`, the figure is 179 to 181 °C. The value for `CNCC(O)COc1ccc(C(F)(F)F)cc1` (stereo not given) was 85 to 87 °C; that for `O=c1[nH]c(=O)c2cc(S(=O)(=O)Cl)cnc2[nH]1` was 311 to 313 °C.

The molecule `Sc1nnc(-c2ccncc2)n1-c1ccccc1` showed a melting point of 290 to 292 °C. As for `OCc1cc(Br)c2c(c1)OCO2`, the figure is 134 to 136 °C; as for `O=C(O)c1cccc(S(=O)(=O)Nc2ccc(Br)cc2)c1`, 241 to 243 °C; as for `CC1Cc2ccccc2N1C(=O)C1CCCCC1C(=O)O` (stereo not given), 123 to 125 °C. In the case of `CC(C)C(NC(=O)COc1ccccc1)C(=O)O` (stereo not given), the melting point lay in the range of 165 to 167 °C. The value for `Nc1nnc(-c2ccc(Br)cc2)o1` was 273 to 275 °C.
